Reference: the NIST ThermoML archive (doi:10.1016/j.tca.2017.03.018)
± gives the expanded uncertainty stated by the source.

Experiments:
[1] = relative permittivity at zero frequency (dimensionless); wn = mass fraction of the nth substance listed; details: 100 kPa, Liquid, time-domain reflectometry
[2] = relative permittivity at zero frequency (dimensionless); details: 100 kPa, Liquid, time-domain reflectometry

C[S+](C)[O-] [dimethyl sulfoxide] + OC[C@@H](O)[C@@H](O)[C@H](O)[C@H](O)CO
[1], w2 = 0
Details | relative permittivity at zero frequency
283.15 K | 50.58 ± 1
288.15 K | 49.42 ± 0.99
293.15 K | 47.81 ± 0.96
298.15 K | 47.3 ± 0.95

OC[C@@H](O)[C@@H](O)CO [meso-1,2,3,4-butanetetrol] + C[S+](C)[O-]
relative permittivity at zero frequency, [1]
Details | w1 = 0.05 | w1 = 0.1 | w1 = 0.15 | w1 = 0.2 | w1 = 0.25
283.15 K | 51.26 ± 1 | 54.06 ± 1.1 | 55.7 ± 1.1 | 57.23 ± 1.1 | 58.96 ± 1.2
288.15 K | 50.01 ± 1 | 51.84 ± 1 | 52.87 ± 1.1 | 54.96 ± 1.1 | 55.78 ± 1.1
293.15 K | 48.57 ± 0.97 | 50.49 ± 1 | 51.35 ± 1 | 53.36 ± 1.1 | 54.3 ± 1.1
298.15 K | 47.78 ± 0.96 | 48.96 ± 0.98 | 50.43 ± 1 | 52.23 ± 1.1 | 52.77 ± 1.1

C[S+](C)[O-] [dimethyl sulfoxide] + OC[C@@H](O)[C@@H](O)CO
[1], w2 = 0
Details | relative permittivity at zero frequency
283.15 K | 50.58 ± 1
288.15 K | 49.42 ± 0.99
293.15 K | 47.81 ± 0.96
298.15 K | 47.3 ± 0.95

C[S+](C)[O-] [dimethyl sulfoxide]
[2]
Details | relative permittivity at zero frequency
283.15 K | 50.58 ± 1
288.15 K | 49.42 ± 0.99
293.15 K | 47.81 ± 0.96
298.15 K | 47.3 ± 0.95

OC[C@@H](O)[C@@H](O)[C@H](O)[C@H](O)CO [mannitol] + C[S+](C)[O-]
relative permittivity at zero frequency, [1]
Details | 283.15 K | 288.15 K | 293.15 K | 298.15 K
w1 = 0.05 | 52.35 ± 1.1 | 50.82 ± 1 | 49.49 ± 0.99 | 48.89 ± 0.98
w1 = 0.1 | 55.31 ± 1.1 | 52.92 ± 1.1 | 51.48 ± 1 | 50.27 ± 1
w1 = 0.15 | 56.79 ± 1.1 | 55.37 ± 1.1 | 53.15 ± 1.1 | 52.18 ± 1

OC[C@@H](O)[C@H](O)[C@@H](O)CO [xylitol] + C[S+](C)[O-]
relative permittivity at zero frequency, [1]
Details | w1 = 0.05 | w1 = 0.1 | w1 = 0.15 | w1 = 0.2 | w1 = 0.25
283.15 K | 52.53 ± 1.1 | 53.28 ± 1.1 | 56.35 ± 1.1 | 58.46 ± 1.2 | 58.08 ± 1.2
288.15 K | 50.33 ± 1 | 51.31 ± 1 | 53.72 ± 1.1 | 55.28 ± 1.1 | 55.18 ± 1.1
293.15 K | 49.39 ± 0.99 | 50.11 ± 1 | 52.45 ± 1.1 | 53.97 ± 1.1 | 54.23 ± 1.1
298.15 K | 48.1 ± 0.96 | 49.63 ± 0.99 | 51.6 ± 1 | 53.03 ± 1.1 | 53.69 ± 1.1

C[S+](C)[O-] [dimethyl sulfoxide] + OC[C@@H](O)[C@H](O)[C@@H](O)CO
[1], w2 = 0
Details | relative permittivity at zero frequency
283.15 K | 50.58 ± 1
288.15 K | 49.42 ± 0.99
293.15 K | 47.81 ± 0.96
298.15 K | 47.3 ± 0.95
